Here are results for six compounds from patent US20050171190A1, “Substituted 5-chroman-5-YL-ethylamine compounds and their use for the treatment of glaucoma” (Alcon, Inc., priority 2002, published 2005).

Like-named read-outs stand apart in the source and are kept apart here.

Experiment [1] has as its target T1, 5-HT2A Receptor (Rattus norvegicus, UniProt P14842).
T1 construct: endogenous in cells; host or cells: A7r5 rat vascular smooth muscle cells
In words: 5-HT2 functional assay: [Ca2+]i mobilization (FLIPR). It is filed as cell-based. As for the experimental part:
The receptor-mediated mobilization on intracellular calcium ([Ca2+]i) was studied using the Fluorescence Imaging Plate Reader (FLIPR) instrument. Rat vascular smooth muscle cells, A7r5, were grown in a normal media of DMEM/10% FBS and 10 μg/mL gentamycin. Confluent cell monolayers were trypsinized, pelleted, and re-suspended in normal media. Cells were seeded in a 50 μL volume at a density of 20,000 cells/well in a black wall, 96-well tissue culture plate and grown for 2 days.
On the day of the experiment, one vial of FLIPR Calcium Assay Kit dye was re-suspended in 50 mL of a FLIPR buffer consisting of Hank's Balanced Salt Solution (HBSS), 20 mM HEPES, and 2.5 mM probenecid, pH 7.4. […]
The compound plate and cell plate were placed in the FLIPR instrument. At the beginning of an experimental run, a signal test was performed to check the basal fluorescence signal from the dye-loaded cells and the uniformity of the signal across the plate. The basal fluorescence was adjusted between 8000-12000 counts by modifying the exposure time, the camera F-stop, or the laser power. […] Fluorescence data were collected in real-time at 1.0 sec intervals for the first 60 secs and at 6.0 sec intervals for an additional 120 secs. Responses were measured as peak fluorescence intensity minus basal and where appropriate were expressed as a percentage of a maximum 5-HT-induced response. […]

The target of experiment [2] is 5-HT2A Receptor. As to the kind of experiment: 5-HT2 receptor binding assay ([125I]DOI competition). On the set-up: species or system rat or human. To be noted: inhibition of [125I]DOI binding, cerebral cortex homogenates. As for the experimental part:
Aliquots of post mortem rat or human cerebral cortex homogenates (400 μL) dispersed in 50 mM Tris-HCl buffer (pH 7.4) are incubated with [125I]DOI (80 pM final) in the absence or presence of methiothepin (10 μM final) to define total and non-specific binding, respectively, in a total volume of 0.5 mL. The assay mixture is incubated for 1 hour at 23° C. in polypropylene tubes and the assays terminated by rapid vacuum filtration over Whatman GF/B glass fiber filters previously soaked in 0.3% polyethyleneimine using ice-cold buffer. Test compounds (at different concentrations) are substituted for methiothepin. Filter-bound radioactivity is determined by scintillation spectrometry on a beta counter. The data are analyzed using a non-linear, iterative curve-fitting computer program (Bowen et al. 1995) to determine the compound affinity parameter. The concentration of the compound needed to inhibit the [125I]DOI binding by 50% of the maximum is termed the IC50 value.

The conditions of experiment [3]: monkey; due to its α1A receptor activity; cited from earlier work.
For experiment [4] the following is noted: rabbits; cited from earlier work.
The next experiment concerns the target T2, 5-HT2C receptor (Homo sapiens, UniProt P28335).
T2 sequence (P28335 33-458): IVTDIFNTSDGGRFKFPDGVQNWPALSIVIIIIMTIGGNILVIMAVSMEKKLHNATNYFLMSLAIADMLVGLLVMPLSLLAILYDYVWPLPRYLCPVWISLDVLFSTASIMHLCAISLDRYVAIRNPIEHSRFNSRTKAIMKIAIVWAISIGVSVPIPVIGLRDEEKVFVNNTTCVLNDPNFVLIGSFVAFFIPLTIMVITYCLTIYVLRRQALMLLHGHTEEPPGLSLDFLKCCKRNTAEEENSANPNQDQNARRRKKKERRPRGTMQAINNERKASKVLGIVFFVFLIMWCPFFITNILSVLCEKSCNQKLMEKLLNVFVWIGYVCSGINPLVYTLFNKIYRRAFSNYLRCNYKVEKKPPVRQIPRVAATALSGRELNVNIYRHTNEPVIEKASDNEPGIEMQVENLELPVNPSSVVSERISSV
The note with it: cited from earlier work.

Experiment [5] addresses 5-HT2A receptor (Homo sapiens, UniProt P28223). To be noted: cited from earlier work.
The conditions of experiment [6]: drug discrimination studies; cited from earlier work.
In another experiment the test system is 5-HT2 receptors. To be noted: cited from earlier work.

T1 sequence (P14842 whole entry): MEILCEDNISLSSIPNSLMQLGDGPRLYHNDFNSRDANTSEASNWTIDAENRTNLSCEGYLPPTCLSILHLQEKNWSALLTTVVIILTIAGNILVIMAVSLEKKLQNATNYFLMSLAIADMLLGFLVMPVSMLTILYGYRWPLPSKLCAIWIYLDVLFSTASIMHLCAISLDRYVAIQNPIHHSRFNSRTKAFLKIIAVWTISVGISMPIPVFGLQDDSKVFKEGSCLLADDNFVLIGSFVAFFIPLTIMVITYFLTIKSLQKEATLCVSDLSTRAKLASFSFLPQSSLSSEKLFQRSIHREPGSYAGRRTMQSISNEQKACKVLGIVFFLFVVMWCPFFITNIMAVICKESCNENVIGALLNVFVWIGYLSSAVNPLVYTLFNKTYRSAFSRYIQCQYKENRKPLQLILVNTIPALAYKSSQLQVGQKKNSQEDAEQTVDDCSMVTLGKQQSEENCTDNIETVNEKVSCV
5-HT2A receptor, sequence (P28223 whole entry): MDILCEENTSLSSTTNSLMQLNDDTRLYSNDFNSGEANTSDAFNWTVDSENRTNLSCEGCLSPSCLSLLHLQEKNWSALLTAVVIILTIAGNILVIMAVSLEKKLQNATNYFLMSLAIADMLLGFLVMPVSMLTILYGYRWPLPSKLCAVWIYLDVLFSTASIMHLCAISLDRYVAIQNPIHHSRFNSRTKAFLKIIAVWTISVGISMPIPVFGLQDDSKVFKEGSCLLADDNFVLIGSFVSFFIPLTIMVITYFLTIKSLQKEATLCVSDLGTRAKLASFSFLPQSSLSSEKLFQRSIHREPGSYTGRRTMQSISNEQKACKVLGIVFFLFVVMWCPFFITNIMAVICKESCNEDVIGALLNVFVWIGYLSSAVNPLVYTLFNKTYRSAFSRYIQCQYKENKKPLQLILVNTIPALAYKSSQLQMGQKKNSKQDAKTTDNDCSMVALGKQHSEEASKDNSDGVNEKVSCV

In general, EC50 refers to the concentration that produces a half-maximal response. Broadly, the IC50 is the concentration that gives 50% inhibition. Take `COc1cc(CC(C)N)c(OC)cc1I` (stereo not drawn) [DOI]: at 5-HT2A Receptor [1] (A7r5 cells, percentage of a maximum 5-HT-induced response), the “Efficacy (Emax, %)” value is recorded as 31%. The compound also gave an EC50 on 5-HT2A Receptor [1] (A7r5 rat vascular smooth muscle cells, [Ca2+]i mobilization) of 30.2 nM. The same compound gave a concentration for half-maximal inhibition (IC50) at 5-HT2A Receptor [2] of 0.33 nM.

For the compound `COc1ccccc1N1CCN(CCCNc2c(C)c(=O)n(C)c(=O)n2C)CC1` [5-methylurapidil], the “effect on IOP” value in experiment [3] is recorded as “lowers IOP”.

For the compound `CCCN(CCC)C1CCc2cccc(O)c2C1` (stereo not drawn) [Compound 8-OH-DPAT, 8-hydroxy-2-(di-n-propylamino)tetralin], the “effect on IOP” value in experiment [4] was “reduces IOP”.

Turning to `CC(N)Cc1cccc2occc12` (stereo not drawn) [2-benzofuran-4-yl-1-methylethylamine], the “agonist activity at the 5-HT2C receptor” value on 5-HT2C receptor was “agonist activity”.

Regarding `COc1cc(Br)c2c(c1CC(C)N)CCO2` (stereo not drawn) [2-(7-bromo-5-methoxy-2,3-dihydro-benzofuran-4-yl)-1-methylethylamine], the “affinity for the 5-HT2A receptor” value on 5-HT2A receptor [5] is reported as “high affinity”. For the same compound, the “generalization to LSD” value in experiment [6] was “generalize to LSD”.

Turning to `COc1cc(CCN)c2c(c1OC)OCC2` [2-(6,7-Dimethoxy-2,3-dihydro-benzofuran-4-yl)-ethylamine], the “affinity for 5-HT2 receptors” value with 5-HT2 receptors was “have affinity”.
